Experiments:
[1] = system: HCV genotype 1a (HCV-1a) replicon cells; assay: HCV genotype 1a replicon luciferase assay (EC50); format: cell-based, hepatitis C virus genotype 1a (H77 clone); settings: Hepatitis C virus, 72 h, 3 days, luciferase (Bright-Glo)
Summary of the method: (§1)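 H77-derived 1a (K1691R, K2040R, S2204I) or Con1-derived 1b (E1202G, T1280I, K1846T) luciferase replicon cells, 8000/well, exposed 3 days at 37° C. to 6-point 5-fold dilutions (top 100, 10 or 1 nM; 0.5% DMSO), in duplicate. Bright-Glo luminescence read; EC50 from nonlinear fit of % inhibition.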

[2] = system: HCV genotype 1b (HCV-1b) replicon cells; assay: HCV genotype 1b replicon luciferase assay (EC50); format: cell-based, hepatitis C virus genotype 1b (Con1 clone); settings: 3 days, luciferase (Bright-Glo)
Summary of the method: as §1

[3] = Cell Titer-fluor cell activity assay in HCV-1b replicon cells (CC50); format: cell-based
Summary of the method: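 Con1 genotype 1b replicon cells (E1202G, T1280I, K1846T adaptive mutations), 8000 cells/well, exposed to 6-point 5-fold dilutions from 100, 10 or 1 nM top concentration in 0.5% DMSO, duplicate wells, 3 days at 37 °C. Viability read by Cell Titer-fluor (Ex 405/Em 515 nm) after 30 min; CC50 from nonlinear fit of inhibition %.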

SMILES	EC50 [1]	EC50 ([2]; Hepatitis C virus, 72 h)	CC50 at 3 days [3]	EC50 [2]
COC(=O)N[C@H](C(=O)N1CCC[C@H]1c1ncc(-c2ccc(-c3ccc(-c4cnc(C5C6CCC(C6)[C@H]5C(=O)N[C@H](C)c5cccnc5)[nH]4)cc3)cc2)[nH]1)[C@@H](C)OC (stereo partly drawn) [AA_253_B]	10 to 100 nM	0.101 to 1 nM	> 1 nM	
COC(=O)N[C@H](C(=O)N1CCC[C@H]1c1ncc(-c2ccc(-c3ccc(-c4cnc(C5C6CCC(C6)[C@H]5C(=O)NC(C)c5cccnc5)[nH]4)cc3)cc2)[nH]1)[C@@H](C)OC (stereo partly drawn) [AA_251_A]	0.101 to 1 nM	0.101 to 1 nM	> 1 nM	
COC(=O)N[C@H](C(=O)N1CCC[C@H]1c1ncc(-c2ccc(-c3ccc(-c4cnc(C5C6CCC(C6)[C@@H]5C(=O)NNc5cccnc5)[nH]4)cc3)cc2)[nH]1)[C@@H](C)OC (stereo partly drawn) [AA_258_B]	10 to 100 nM	1 to 10 nM	> 1 nM	
COC(=O)N[C@H](C(=O)N1CCC[C@H]1c1ncc(-c2ccc3c(c2)[C@@](C)(O)c2cc(-c4cnc(C5C6CCC(C6)[C@H]5C(=O)NCc5cccnc5)[nH]4)ccc2-3)[nH]1)C(C)C (stereo partly drawn) [AA_241_A]	10 to 100 nM	0.101 to 1 nM	> 1 nM	
COC(=O)N[C@H](C(=O)N1CCC[C@H]1c1ncc(-c2ccc(-c3ccc(-c4cnc(C5C6CCC(C6)[C@@H]5C(=O)N[C@H](C)c5cccnc5)[nH]4)cc3)cc2)[nH]1)[C@@H](C)OC (single isomer, unassigned) [AA_253_A]	10 to 100 nM		> 1 nM	0.101 to 1 nM
COC(=O)N[C@H](C(=O)N1CCC[C@H]1c1ncc(-c2ccc(-c3ccc(-c4cnc([C@@H]5C6CCC(C6)[C@H]5C(=O)NC(c5cccnc5)C(C)C)[nH]4)cc3)cc2)[nH]1)C(C)C (stereo partly drawn) [AA_233_B]	1 to 10 nM	0.001 to 0.1 nM	> 1 nM	
COC(=O)N[C@H](C(=O)N1CCC[C@H]1c1ncc(-c2ccc(-c3ccc(-c4cnc(C5C6CCC(C6)[C@@H]5C(=O)NCc5cncc(C(C)C)c5)[nH]4)cc3)cc2)[nH]1)[C@@H](C)OC (stereo partly drawn) [AA_254_A]	10 to 100 nM	0.101 to 1 nM	> 1 nM	
COC(=O)N[C@H](C(=O)N1CCC[C@H]1c1ncc(-c2ccc(-c3ccc(-c4cnc([C@@H]5[C@H]6CC[C@H](C6)[C@H]5C(=O)N[C@H](CO)c5cccnc5)[nH]4)cc3)cc2)[nH]1)C(C)C [AA_243_ENDOA2_B]	0.101 to 1 nM	0.001 to 0.1 nM	> 1 nM	
COC(=O)N[C@H](C(=O)N1CCC[C@H]1c1ncc(-c2ccc(-c3ccc(-c4cnc(C5C6CCC(C6)[C@@H]5C(=O)NCc5cccnc5)[nH]4)cc3)cc2)[nH]1)C(C)C (stereo partly drawn) [AA_162_B]	1 to 10 nM	0.001 to 0.1 nM	> 1 nM	
COC(=O)N[C@H](C(=O)N1CCC[C@H]1c1ncc(-c2ccc(-c3ccc(-c4cnc([C@@H]5C6CCC(C6)[C@H]5C(=O)NCc5ccc(F)nc5)[nH]4)cc3)cc2)[nH]1)C(C)C (stereo partly drawn) [AA_214_B]	10 to 100 nM	0.001 to 0.1 nM	> 1 nM	
COC(=O)N[C@H](C(=O)N1CCC[C@H]1c1ncc(-c2ccc(-c3ccc(-c4cnc(C5C6CCC(C6)[C@@H]5C(=O)N(C)c5ccccn5)[nH]4)cc3)cc2)[nH]1)[C@@H](C)OC (stereo partly drawn) [AA_247_A]	0.101 to 1 nM	0.001 to 0.1 nM	> 1 nM	
COC(=O)N[C@H](C(=O)N1CCC[C@H]1c1ncc(-c2ccc(-c3ccc(-c4cnc(C5C6CCC(C6)[C@H]5C(=O)NCc5cccnc5F)[nH]4)cc3)cc2)[nH]1)[C@@H](C)OC (stereo partly drawn) [AA_252_B]	1 to 10 nM	0.001 to 0.1 nM	> 1 nM	
COC(=O)N[C@H](C(=O)N1CCC[C@@H]1c1ccc(-c2ccc(-c3ccc(-c4cnc([C@@H]5CCCN5C(=O)[C@@H](NC(=O)OC)[C@@H](C)OC)[nH]4)cc3)cc2)[nH]1)C(C)C [AG_061_B]	0.101 to 1 nM	0.001 to 0.1 nM	> 10 nM	
COC(=O)N[C@H](C(=O)N1CCC[C@H]1c1nc2cc(-c3ccc(-c4[nH]c([C@@H]5CCCN5C(=O)[C@@H](NC(=O)OC)C(C)C)c5c4CCC5)cc3)ccc2[nH]1)C(C)C [AG_063]	10 to 100 nM	0.001 to 0.1 nM	> 1 nM	
COC(=O)N[C@H](C(=O)N1CCC[C@H]1c1ncc(-c2ccc(-c3ccc(-c4cnc(C5C6CCC(C6)[C@H]5C(=O)NCc5cccnc5C(F)(F)F)[nH]4)cc3)cc2)[nH]1)[C@@H](C)OC (stereo partly drawn) [AA_255_B]	10 to 100 nM	0.001 to 0.1 nM	> 1 nM	
COC(=O)NC(C(=O)N1CCC[C@H]1c1[nH]c(-c2ccc(-c3ccc(-c4cnc([C@@H]5CCCN5C(=O)[C@@H](NC(=O)OC)[C@@H](C)OC)[nH]4)cc3)cc2)c2c1CCC2)[C@@H](C)OC (stereo partly drawn) [AG_068_A]	1 to 10 nM	0.001 to 0.1 nM	> 1 nM	
